Key:
[1] = biological target: BRD4 (BDII_E352-M457) (Homo sapiens (Human), UniProt O60885); assay: TR-FRET bromodomain binding assay, BRD4 second bromodomain; conditions: His-tagged BD2, Alexa647-labeled probe 30 nM
How it was run: (§1)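 Probe displacement, TR-FRET: 8 nM His-BRD4 domain, 1 nM Eu-anti-His, Alexa647 BET-inhibitor probe 100 nM (BDI)/30 nM (BDII); 20 mM Na phosphate pH 6.0, 50 mM NaCl, 1 mM DTT; cpd 50 μM-0.85 nM, 3-fold; 1 h RT; Ex 340/[…]; IC50 → Ki.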

[2] = biological target: BRD4 (BDI_K57-E168) (Homo sapiens (Human), UniProt O60885); assay: TR-FRET bromodomain binding assay, BRD4 first bromodomain; conditions: His-tagged BD1, Alexa647-labeled probe 100 nM
How it was run: as §1

Row | Ki [1] | Ki [2] | Structure (SMILES)
1 | 158 nM | > 238 nM | CCS(=O)(=O)c1ccc(Oc2c(C)cccc2Cl)c(-c2cn(C)c(=O)c3[nH]c(C(=O)NCC#N)cc23)c1 [Example 120, 4-[2-(2-chloro-6-methylphenoxy)-5-(ethylsulfonyl)phenyl]-N-(cyanomethyl)-6-methyl-7-oxo-6,7-dihydro-1H-pyrrolo[2,3-c]pyridine-2-carboxamide]
2 | 7.2 nM | 62.1 nM | CCS(=O)(=O)c1ccc(Oc2c(C)cccc2Cl)c(-c2cn(C)c(=O)c3[nH]c(C(=O)NC(C)C(=O)NC)cc23)c1 (stereo not shown) [Example 121, 4-[2-(2-chloro-6-methylphenoxy)-5-(ethylsulfonyl)phenyl]-6-methyl-N-[1-(methylamino)-1-oxopropan-2-yl]-7-oxo-6,7-dihydro-1H-pyrrolo[2,3-c]pyridine-2-carboxamide]
3 | 7.58 nM | 39.1 nM | CCS(=O)(=O)c1ccc(Oc2c(C)cccc2Cl)c(-c2cn(C)c(=O)c3[nH]c(C(=O)NCC(=O)N4CCCCC4)cc23)c1 [Example 122, 4-[2-(2-chloro-6-methylphenoxy)-5-(ethylsulfonyl)phenyl]-6-methyl-7-oxo-N-[2-oxo-2-(piperidin-1-yl)ethyl]-6,7-dihydro-1H-pyrrolo[2,3-c]pyridine-2-carboxamide]
4 | 5.6 nM | 39.9 nM | CCS(=O)(=O)c1ccc(Oc2c(C)cccc2Cl)c(-c2cn(C)c(=O)c3[nH]c(C(=O)NCCC#N)cc23)c1 [Example 123, 4-[2-(2-chloro-6-methylphenoxy)-5-(ethylsulfonyl)phenyl]-N-(2-cyanoethyl)-6-methyl-7-oxo-6,7-dihydro-1H-pyrrolo[2,3-c]pyridine-2-carboxamide]
5 | 10.1 nM | 88.3 nM | CCS(=O)(=O)c1ccc(Oc2c(C)cccc2Cl)c(-c2cn(C)c(=O)c3[nH]c(C(=O)NCC(=O)NC)cc23)c1 [Example 124, 4-[2-(2-chloro-6-methylphenoxy)-5-(ethylsulfonyl)phenyl]-6-methyl-N-[2-(methylamino)-2-oxoethyl]-7-oxo-6,7-dihydro-1H-pyrrolo[2,3-c]pyridine-2-carboxamide]
6 | 189 nM | 8.47 nM | CN1CCC(N2CCN(Cc3cc4c(-c5cc(S(C)(=O)=O)ccc5Oc5ccc(F)cc5F)cn(C)c(=O)c4[nH]3)CC2)CC1 [Example 125, 4-[2-(2,4-difluorophenoxy)-5-(methylsulfonyl)phenyl]-6-methyl-2-{[4-(1-methylpiperidin-4-yl)piperazin-1-yl]methyl}-1,6-dihydro-7H-pyrrolo[2,3-c]pyridin-7-one]
7 | 276 nM | 54.5 nM | Cn1cc(-c2cc(S(C)(=O)=O)ccc2Oc2ccc(F)cc2F)c2cc(CN3CCCN(c4ccccn4)CC3)[nH]c2c1=O [Example 126, 4-[2-(2,4-difluorophenoxy)-5-(methylsulfonyl)phenyl]-6-methyl-2-{[4-(pyridin-2-yl)-1,4-diazepan-1-yl]methyl}-1,6-dihydro-7H-pyrrolo[2,3-c]pyridin-7-one]
8 | 93.8 nM | 15.8 nM | Cn1cc(-c2cc(S(C)(=O)=O)ccc2Oc2ccc(F)cc2F)c2cc(CN3CCOCC3c3ccco3)[nH]c2c1=O (stereo not shown) [Example 127, 4-[2-(2,4-difluorophenoxy)-5-(methylsulfonyl)phenyl]-2-{[3-(furan-2-yl)morpholin-4-yl]methyl}-6-methyl-1,6-dihydro-7H-pyrrolo[2,3-c]pyridin-7-one]
9 | 182 nM | 47.8 nM | Cc1nnc(C)n1C1CCN(Cc2cc3c(-c4cc(S(C)(=O)=O)ccc4Oc4ccc(F)cc4F)cn(C)c(=O)c3[nH]2)CC1 [Example 128, 4-[2-(2,4-difluorophenoxy)-5-(methylsulfonyl)phenyl]-2-{[4-(3,5-dimethyl-4H-1,2,4-triazol-4-yl)piperidin-1-yl]methyl}-6-methyl-1,6-dihydro-7H-pyrrolo[2,3-c]pyridin-7-one]
10 | 87 nM | 15.9 nM | Cc1cc(C)n(C2CN(Cc3cc4c(-c5cc(S(C)(=O)=O)ccc5Oc5ccc(F)cc5F)cn(C)c(=O)c4[nH]3)C2)n1 [Example 129, 4-[2-(2,4-difluorophenoxy)-5-(methylsulfonyl)phenyl]-2-{[3-(3,5-dimethyl-1H-pyrazol-1-yl)azetidin-1-yl]methyl}-6-methyl-1,6-dihydro-7H-pyrrolo[2,3-c]pyridin-7-one]
11 | 108 nM | 10.1 nM | Cn1cc(-c2cc(S(C)(=O)=O)ccc2Oc2ccc(F)cc2F)c2cc(CN3CCC(N4CCOCC4)CC3)[nH]c2c1=O [Example 130, 4-[2-(2,4-difluorophenoxy)-5-(methylsulfonyl)phenyl]-6-methyl-2-{[4-(morpholin-4-yl)piperidin-1-yl]methyl}-1,6-dihydro-7H-pyrrolo[2,3-c]pyridin-7-one]
12 | 165 nM | 49.7 nM | Cc1noc(C2CCCN2Cc2cc3c(-c4cc(S(C)(=O)=O)ccc4Oc4ccc(F)cc4F)cn(C)c(=O)c3[nH]2)n1 (stereo not shown) [Example 131, 4-[2-(2,4-difluorophenoxy)-5-(methylsulfonyl)phenyl]-6-methyl-2-{[2-(3-methyl-1,2,4-oxadiazol-5-yl)pyrrolidin-1-yl]methyl}-1,6-dihydro-7H-pyrrolo[2,3-c]pyridin-7-one]
13 | 128 nM | 26.9 nM | Cn1cc(-c2cc(S(C)(=O)=O)ccc2Oc2ccc(F)cc2F)c2cc(CN3CCN(c4ccccn4)CC3)[nH]c2c1=O [Example 132, 4-[2-(2,4-difluorophenoxy)-5-(methylsulfonyl)phenyl]-6-methyl-2-{[4-(pyridin-2-yl)piperazin-1-yl]methyl}-1,6-dihydro-7H-pyrrolo[2,3-c]pyridin-7-one]
14 | 20.3 nM | 2130 nM | CCNC(=O)c1cc2c(-c3cc(S(=O)(=O)CC)ccc3Oc3c(C)cccc3NCC3CCOC3)cn(C)c(=O)c2[nH]1 (stereo not shown) [Example 133, N-ethyl-4-[5-(ethylsulfonyl)-2-{2-methyl-6-[(tetrahydrofuran-3-ylmethyl)amino]phenoxy}phenyl]-6-methyl-7-oxo-6,7-dihydro-1H-pyrrolo[2,3-c]pyridine-2-carboxamide]
15 | 1.62 nM | 23.4 nM | CCNC(=O)/C=C/c1cc2c(-c3cc(S(=O)(=O)CC)ccc3Oc3c(C)cccc3C)cn(C)c(=O)c2[nH]1 [Example 134, (2E)-3-{4-[2-(2,6-dimethylphenoxy)-5-(ethylsulfonyl)phenyl]-6-methyl-7-oxo-6,7-dihydro-1H-pyrrolo[2,3-c]pyridin-2-yl}-N-ethylprop-2-enamide]
16 | 23.1 nM | 54.9 nM | Cc1cccc(C)c1Oc1ccc(S(C)(=O)=O)cc1-c1cn(C)c(=O)c2[nH]c(-c3nc(C4CC4)no3)cc12 [Example 135, 2-(3-cyclopropyl-1,2,4-oxadiazol-5-yl)-4-[2-(2,6-dimethylphenoxy)-5-(methylsulfonyl)phenyl]-6-methyl-1,6-dihydro-7H-pyrrolo[2,3-c]pyridin-7-one]
17 | 7.38 nM | 88.5 nM | Cc1cccc(C)c1Oc1ccc(S(C)(=O)=O)cc1-c1cn(C)c(=O)c2[nH]c(-c3nc(-c4cccnc4)no3)cc12 [Example 138, 4-[2-(2,6-dimethylphenoxy)-5-(methylsulfonyl)phenyl]-6-methyl-2-[3-(pyridin-3-yl)-1,2,4-oxadiazol-5-yl]-1,6-dihydro-7H-pyrrolo[2,3-c]pyridin-7-one]
18 | 8.7 nM | 807 nM | CCNC(=O)c1cc2c(-c3cc(S(=O)(=O)CC)ccc3Oc3c(C)cccc3Cn3cccn3)cn(C)c(=O)c2[nH]1 [Example 145, N-ethyl-4-{5-(ethylsulfonyl)-2-[2-methyl-6-(1H-pyrazol-1-ylmethyl)phenoxy]phenyl}-6-methyl-7-oxo-6,7-dihydro-1H-pyrrolo[2,3-c]pyridine-2-carboxamide]
19 | 50.1 nM | 3280 nM | CCNC(=O)c1cc2c(-c3cc(S(=O)(=O)CC)ccc3Oc3c(C)cccc3CN3CCOCC3)cn(C)c(=O)c2[nH]1 [Example 146, N-ethyl-4-{5-(ethylsulfonyl)-2-[2-methyl-6-(morpholin-4-ylmethyl)phenoxy]phenyl}-6-methyl-7-oxo-6,7-dihydro-1H-pyrrolo[2,3-c]pyridine-2-carboxamide]
20 | 57.5 nM | 761 nM | CCNC(=O)c1cc2c(-c3cc(S(=O)(=O)CC)ccc3Oc3c(C)cccc3CN3CCCCC3)cn(C)c(=O)c2[nH]1 [Example 147, N-ethyl-4-{5-(ethylsulfonyl)-2-[2-methyl-6-(piperidin-1-ylmethyl)phenoxy]phenyl}-6-methyl-7-oxo-6,7-dihydro-1H-pyrrolo[2,3-c]pyridine-2-carboxamide]
21 | 7.02 nM | 5720 nM | CCNC(=O)c1cc2c(-c3cc(S(=O)(=O)CC)ccc3Oc3c(C)cccc3CCc3ccccc3)cn(C)c(=O)c2[nH]1 [Example 148, N-ethyl-4-{5-(ethylsulfonyl)-2-[2-methyl-6-(2-phenylethyl)phenoxy]phenyl}-6-methyl-7-oxo-6,7-dihydro-1H-pyrrolo[2,3-c]pyridine-2-carboxamide]
22 | 0.669 nM | 2.81 nM | CCS(=O)(=O)c1ccc(OC2CCCCC2)c(-c2cn(C)c(=O)c3[nH]c(-c4cnn(C5CCNCC5)c4)cc23)c1 [Example 149, 4-[2-(cyclohexyloxy)-5-(ethylsulfonyl)phenyl]-6-methyl-2-[1-(piperidin-4-yl)-1H-pyrazol-4-yl]-1,6-dihydro-7H-pyrrolo[2,3-c]pyridin-7-one]
23 | 73.9 nM | 2680 nM | CCNC(=O)c1cc2c(-c3cc(S(=O)(=O)CC)ccc3Oc3c(C)cccc3Cn3ccnc3)cn(C)c(=O)c2[nH]1 [Example 150, N-ethyl-4-{5-(ethylsulfonyl)-2-[2-(1H-imidazol-1-ylmethyl)-6-methylphenoxy]phenyl}-6-methyl-7-oxo-6,7-dihydro-1H-pyrrolo[2,3-c]pyridine-2-carboxamide]

From patent US9957263B2, “Bromodomain inhibitors” (AbbVie Inc., priority 2013, dated 2018)
